In patent US4863904A, “Dipeptides as renin inhibitors” (priority 1984, dated 1989):

Target: T1, human renin (Homo sapiens, UniProt P00797)
T1 sequence (P00797 67-406): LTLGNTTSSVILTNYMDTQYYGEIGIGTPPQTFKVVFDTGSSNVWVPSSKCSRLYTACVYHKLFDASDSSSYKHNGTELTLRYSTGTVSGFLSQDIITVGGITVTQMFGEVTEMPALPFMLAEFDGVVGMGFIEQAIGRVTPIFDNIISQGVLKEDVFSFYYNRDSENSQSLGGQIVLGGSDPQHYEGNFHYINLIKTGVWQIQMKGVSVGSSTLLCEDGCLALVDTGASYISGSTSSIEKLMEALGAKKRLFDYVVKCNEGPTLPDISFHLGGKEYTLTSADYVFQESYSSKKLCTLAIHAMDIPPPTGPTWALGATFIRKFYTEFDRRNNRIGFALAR
Assay: Human renin-sheep renin substrate reaction system in vitro
Type: biochemical
Conditions: IC50 (molar concentration), purified human renin, semipurified sheep renin substrate, pH 7.4, 37° C., 15 minutes; angiotensin I by radioimmunoassay
Experimental: The mixture was incubated for 15 minutes on a water bath at 37° C., and the reaction mixture was allowed to stand for 5 minutes on a water bath at 100° C. to stop the reaction. After cooling, 200 μl of the solution was taken up and the amount of angiotensin I produced by the addition of renin was determined by radioimmunoassay. The inhibitory effect was calculated by the following equation. [formula]
As a control, the same procedure as above was carried out by using 50 μl of dimethyl sulfoxide alone in place of the 50 μl of dimethyl sulfoxide solution containing a dipeptide of the present invention.

IC50 | SMILES
15 µM | CC(C)C[C@@H](CO)NC(=O)[C@H](Cc1c[nH]cn1)NC(=O)C(CCOCCc1ccccc1)Cc1cccc2ccccc12 (mixture of isomers) [N-[(±)-2-(1-Naphthylmethyl)-4-phenethoxybutyryl]-L-histidyl-L-leucinol]
5.4 µM | CC(C)C[C@@H](CO)NC(=O)[C@H](Cc1c[nH]cn1)NC(=O)C(CCCCc1ccccc1)Cc1cccc2ccccc12 (mixture of isomers) [N-[(±)-2-(1-Naphthylmethyl)-6-phenylhexanoyl]-L-histidyl-L-leucinol]

Same assay, conditions: purified human renin, semipurified sheep renin substrate, pH 7.4, 37° C., 15 minutes; angiotensin I by radioimmunoassay; read-out: IC50 (molar concentration)

IC50 | SMILES
0.22 µM | CC(C)C[C@@H](C=O)NC(=O)[C@H](Cc1c[nH]cn1)NC(=O)C(CC=Cc1ccccc1)Cc1cccc2ccccc12 (mixture of isomers) [N-[(±)-2-(1-Naphthylmethyl)-5-phenyl-4-pentenoyl]-L-histidyl-L-leucinal]
0.07 µM | CC(C)C[C@@H](C=O)NC(=O)[C@H](Cc1c[nH]cn1)NC(=O)C(CC(=O)NCc1ccccc1)Cc1cccc2ccccc12 (single isomer, unassigned) [N-[3-(Benzylcarbamoyl)-2-(1-naphthylmethyl)propionyl]-L-histidyl-L-leucinal(isomer A)]
7.6 µM | CC(C)C[C@@H](C=O)NC(=O)[C@H](Cc1c[nH]cn1)NC(=O)C(CNC(=O)Cc1cccc2ccccc12)Cc1ccccc1 (mixture of isomers) [N-[(±)-2-Benzyl-3-(1-naphthylacetamido)propionyl]-L-histidyl-L-leucinal]
13 µM | CC(C)C[C@@H](CO)NC(=O)[C@H](Cc1c[nH]cn1)NC(=O)C(CCCc1ccccc1)Cc1cccc2ccccc12 (mixture of isomers) [N-[(±)-2-(1-Naphthylmethyl)-5-phenylvaleryl]-L-histidyl-L-leucinol]
0.088 µM | CC(C)C[C@@H](C=O)NC(=O)[C@H](Cc1c[nH]cn1)NC(=O)C(CCCCc1ccccc1)Cc1cccc2ccccc12 (stereo partly drawn) [N-[(+)-2-(1-Naphthylmethyl)-6-phenylhexanoyl]-L-histidyl-L-leucinal]
4.9 µM | CC(C)C[C@@H](C=O)NC(=O)[C@H](Cc1c[nH]cn1)NC(=O)C(CC(=O)NCc1ccccc1)Cc1cccc2ccccc12 (single isomer, unassigned) [N-[3-(Benzylcarbamoyl)-2-(1-naphthylmethyl)propionyl]-L-histidyl-L-leucinal(isomer B)]
18 µM | CC(C)C[C@@H](CO)NC(=O)[C@H](Cc1c[nH]cn1)NC(=O)C(CC(=O)Nc1ccccc1)Cc1cccc2ccccc12 (single isomer, unassigned) [N-[2-(1-Naphthylmethyl)-3-(phenylcarbamoyl)propionyl]-L-histidyl-L-leucinol(isomer B)]
0.19 µM | CC(C)C[C@@H](C=O)NC(=O)[C@H](Cc1c[nH]cn1)NC(=O)C(CCCC(=O)c1ccccc1)Cc1cccc2ccccc12 (mixture of isomers) [N-[(±)-5-Benzoyl-2-(1-naphthylmethyl)valeryl]-L-histidyl-L-leucinal]
0.14 µM | CC(C)C[C@@H](C=O)NC(=O)[C@H](Cc1c[nH]cn1)NC(=O)C(CCCCc1ccccc1)Cc1cccc2ccccc12 (stereo partly drawn) [N-[2-(1-Naphthylmethyl)-6-phenylhexanoyl]-L-histidyl-L-leucinal]
0.46 µM | CC(C)C[C@@H](C=O)NC(=O)[C@H](Cc1c[nH]cn1)NC(=O)C(CCCCc1ccccc1)Cc1cccc2ccccc12 (stereo partly drawn) [N-[(-)-2-(1-Naphthylmethyl)-6-phenylhexanoyl]-L-histidyl-L-leucinal]
27 µM | CC(C)C[C@@H](CO)NC(=O)[C@H](Cc1c[nH]cn1)NC(=O)C(CC(=O)NCc1ccccc1)Cc1cccc2ccccc12 (single isomer, unassigned) [N-[3-(Benzylcarbamoyl)-2-(1-naphthylmethyl)propionyl]-L-histidyl-L-leucinol(isomer B)]
25 µM | CC(C)C[C@@H](CO)NC(=O)[C@H](Cc1c[nH]cn1)NC(=O)C(CC(=O)NCCc1ccccc1)Cc1cccc2ccccc12 (single isomer, unassigned) [N-[2-(1-Naphthylmethyl)-3-(phenethylcarbamoyl)propionyl]-L-histidyl-L-leucinol]
7.4 µM | CC(C)C[C@@H](CO)NC(=O)[C@H](Cc1c[nH]cn1)NC(=O)C(CC(=O)NCCc1ccccc1)Cc1cccc2ccccc12 (single isomer, unassigned) [N-[2-(1-naphthylmethyl)-3-(phenethylcarbamoyl)propionyl]-L-histidyl-L-leucinol (isomer A)]

The remaining lines, values behind:

SMILES | IC50
CC(C)C[C@@H](C=O)NC(=O)[C@H](Cc1c[nH]cn1)NC(=O)C(CCCCCc1ccccc1)Cc1ccccc1 (stereo partly drawn) [N-[2-Benzyl-7-phenylheptanoyl)-L-histidyl-L-leucinal] | 2 µM
CC(C)C[C@@H](CO)NC(=O)[C@H](Cc1c[nH]cn1)NC(=O)C(CC=CC=Cc1ccccc1)Cc1cccc2ccccc12 (mixture of isomers) [N-[(±)-2-(1-Naphthylmethyl)-7-phenyl-4,6-heptadienoyl]-L-histidyl-L-leucinol] | 12 µM
CC(C)C[C@@H](C=O)NC(=O)[C@H](Cc1c[nH]cn1)NC(=O)C(CCc1ccccc1)CCc1ccccc1 [N-[4-Phenyl-2-(2-phenylethyl)butanoyl]-L-histidyl-L-leucinal] | 3.5 µM
CC(C)C[C@@H](CO)NC(=O)[C@H](Cc1c[nH]cn1)NC(=O)C(CCCOc1ccccc1)Cc1cccc2ccccc12 (mixture of isomers) [N-[(±)-2-(1-Naphthylmethyl)-5-phenoxyvaleryl]-L-histidyl-L-leucinol] | 26 µM
O=C(CC(Cc1cccc2ccccc12)C(=O)N[C@@H](Cc1c[nH]cn1)C(=O)N[C@H](CO)Cc1ccccc1)NCCc1ccccc1 (single isomer, unassigned) [N-[2-(1-naphthylmethyl)-3-(phenethylcarbamoyl)propionyl]-L-histidyl-L-phenylalaninol (isomer A)] | 91 µM
CC(C)C[C@@H](CO)NC(=O)[C@H](Cc1c[nH]cn1)NC(=O)C(=Cc1cccc2ccccc12)CC(=O)NCCc1ccccc1 [N-[2-(1-Naphthylmethylene)-3-(phenethylcarbamoyl)propionyl]-L-histidyl-L-leucinol] | 69 µM
CC(C)C[C@@H](CO)NC(=O)[C@H](Cc1c[nH]cn1)NC(=O)C(CC=Cc1ccccc1)Cc1cccc2ccccc12 (mixture of isomers) [N-[(±)-2-(1-Naphthylmethyl)-5-phenyl-4-pentenoyl]-L-histidyl-L-leucinol] | 2.7 µM
CC(C)C[C@@H](C=O)NC(=O)[C@H](Cc1c[nH]cn1)NC(=O)C(CCCCc1ccc2ccccc2c1)Cc1ccccc1 (stereo partly drawn) [N-[2-Benzyl-6-(2-naphthyl)hexanoyl]-L-histidyl-L-leucinal] | 3.4 µM
CC(C)C[C@@H](CO)NC(=O)[C@H](Cc1c[nH]cn1)NC(=O)C(CC(=O)NCCc1c[nH]c2ccccc12)Cc1cccc2ccccc12 (single isomer, unassigned) [N-{3-[2-(3-Indolyl)ethylcarbamoyl]-2-(1-naphthylmethyl)propionyl}-L-histidyl-L-leucinol (isomer A)] | 28 µM
CC(C)C[C@@H](CO)NC(=O)[C@H](Cc1c[nH]cn1)NC(=O)C(CC(=O)NCCc1c[nH]c2ccccc12)Cc1cccc2ccccc12 (single isomer, unassigned) [N-{3-[2-(3-Indolyl)ethylcarbamoyl]-2-(1-naphthylmethyl)propionyl}-L-histidyl-L-leucinol (isomer B)] | 6.6 µM
